Measurements reported in patent US20090035306A1 (KALYPSYS, INC., priority 2006, published 2009).

Molecular target: T1, human TGR5 (Homo sapiens, UniProt Q8TDU6)
T1 construct: expressed in transfected cells
T1 sequence (Q8TDU6 1-330): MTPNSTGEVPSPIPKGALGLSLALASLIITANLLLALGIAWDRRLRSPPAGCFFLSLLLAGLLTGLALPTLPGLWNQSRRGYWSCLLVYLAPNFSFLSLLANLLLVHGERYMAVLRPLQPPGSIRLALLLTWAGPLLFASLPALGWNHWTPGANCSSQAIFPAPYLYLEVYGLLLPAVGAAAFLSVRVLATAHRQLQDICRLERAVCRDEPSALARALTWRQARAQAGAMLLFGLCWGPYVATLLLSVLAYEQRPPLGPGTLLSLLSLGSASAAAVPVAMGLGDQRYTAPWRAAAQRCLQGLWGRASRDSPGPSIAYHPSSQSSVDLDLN
Experiment: cAMP production assay in HEK293 cells stably expressing TGR5 (LANCE TR-FRET)
Assay type: cell-based
Conditions: 30 minutes stimulation, read-out: cAMP Production in 293-TGR5 Cells EC50
Protocol: HEK293 cells stably expressing TGR5 (HEK293-TGR5) were established by stably transfecting HEK-293 cells with an expression vector (pcDNA 3.1, Invetrogen) inserted with human TGR5 cDNA using Fugene6 (Roche, Indianapolis, Ind.) according to conventional methods. Cells were grown in DMEM (invitrogen, Carlsbad, Calif.) supplemented with 10% FBS, 1% penicillin/streptomycin under geneticin selection. The presence of TGR5 transcripts in these cells was confirmed using branched DNA (bDNA, Genospectra, Inc., Fremont Calif.) following the manufacturer's protocol and using specific probes for human TGR5. cAMP production assay was performed in high throughput 1536 well format using LANCE cAMP detection kit (Perkin Elmer Inc., Boston, Mass.) according to the manufacturer's protocol. Briefly, HEK293-TGR5 cells were harvested using non-enzymatic cell dissociation buffer (Invitrogen, Carlsbad, Calif.) and suspended in DMEM supplemented with 0.1% FBS at a density of 800,000 cells/ml. Alexa antibody was added to the cell suspension, and 4 ul of the mixture was dispensed in white opaque tissue culture treated Greiner 1536 well plates (USA Scientific, Inc., Ocala, Fla.). After an overnight incubation at 37 C in an atmosphere of 10% CO2 and 95% humidity, 1 ul of 5 mM IBMX (Sigma, St. Louis, Mo.) solution in DMEM was dispensed for a final concentration of 1 mM. Cells were then stimulated with test compounds for 30 minutes, after which time 5 ul of detection reagent was added and incubated for 1-7 hrs at room temperature. TR-FRET signal was detected using the Viewlux (Perkin Elmer Inc., Boston Mass.). EC50 values were determined using Graph Pad Prizm analysis (GraphPad Software, Inc). The EC50 values for a wide range of bile acids generated from this assay were in agreement with the values published in the scientific literature. […] The symbol (+) denotes an EC50 value of ≦10 μM while the symbol (−) denotes an EC50 value of >10 μM (see Table 1).

SMILES	EC50 [µM]
O=c1c2ccccc2nc(-c2ccco2)n1N(Cc1ccc(Br)cc1)Cc1ccc(Br)cc1 [Example 41, 3-(bis(4-bromobenzyl)amino)-2-(furan-2-yl)quinazolin-4(3H)-one]	≤ 10
O=c1c2ccccc2nc(C2CCCCC2)n1NCc1ccc(Br)cc1 [Example 44, 3-(4-bromobenzylamino)-2-cyclohexylquinazolin-4(3H)-one]	≤ 10
O=c1c2ccccc2nc(C2CCCCC2)n1NCc1ccc(Cl)cc1 [Example 45, 3-(4-chlorobenzylamino)-2-cyclohexylquinazolin-4(3H)-one]	≤ 10
O=c1c2ccccc2nc(-c2cccc(Cl)c2)n1NCc1ccc(Cl)cc1 [Example 48, 3-(4-chlorobenzylamino)-2-(3-chlorophenyl)quinazolin-4(3H)-one]	≤ 10
O=c1c2ccccc2nc(-c2cccc(Cl)c2)n1NCc1ccc(C(F)(F)F)cc1 [Example 49, 2-(3-chlorophenyl)-3-(4-(trifluoromethyl)benzylamino)quinazolin-4(3H)-one]	≤ 10
O=c1c2ccccc2nc(-c2cccc(Cl)c2)n1NCc1ccc(F)c(F)c1 [Example 50, 2-(3-chlorophenyl)-3-(3,4-difluorobenzylamino)quinazolin-4(3H)-one]	≤ 10
O=c1c2ccccc2nc(-c2ccc(Cl)cc2)n1NCc1ccc(F)c(F)c1 [Example 53, 2-(4-chlorophenyl)-3-(3,4-difluorobenzylamino)quinazolin-4(3H)-one]	≤ 10
COc1cccc(-c2nc3ccccc3c(=O)n2NCc2ccc(Cl)cc2)c1 [Example 56, 3-(4-chlorobenzylamino)-2-(3-methoxyphenyl)quinazolin-4(3H)-one]	≤ 10
Cc1cc(-c2nc3ccccc3c(=O)n2NCc2ccc(Cl)cc2)ccc1F [Example 57, 3-(4-chlorobenzylamino)-2-(4-fluoro-3-methylphenyl)quinazolin-4(3H)-one]	≤ 10
COc1cc(OC)cc(-c2nc3ccccc3c(=O)n2NCc2ccc(Br)cc2)c1 [Example 58, 3-(4-bromobenzylamino)-2-(3,5-dimethoxyphenyl)quinazolin-4(3H)-one]	≤ 10
COc1cc(OC)cc(-c2nc3ccccc3c(=O)n2NCc2ccc(Cl)cc2)c1 [Example 59, 3-(4-chlorobenzylamino)-2-(3,5-dimethoxyphenyl)quinazolin-4(3H)-one]	≤ 10

The next lines start with the values.

EC50 [µM]	SMILES
> 10	CN(C)c1ccc(-c2nc3ccccc3c(=O)n2NCc2ccc(Br)cc2)cc1 [Example 42, 3-(4-bromobenzylamino)-2-(4-(dimethylamino)phenyl)quinazolin-4(3H)-one]
≤ 10	CN(C)c1ccc(-c2nc3ccccc3c(=O)n2NCc2ccc(Cl)cc2)cc1 [Example 43, 3-(4-chlorobenzylamino)-2-(4-(dimethylamino)phenyl)quinazolin-4(3H)-one]
≤ 10	O=c1c2ccccc2nc(-c2cccc(Cl)c2)n1NCc1ccc(Br)cc1 [Example 46, 3-(4-bromobenzylamino)-2-(3-chlorophenyl)quinazolin-4(3H)-one]
≤ 10	O=c1c2ccccc2nc(-c2ccc(Cl)cc2)n1NCc1ccc(Br)cc1 [Example 47, 3-(4-bromobenzylamino)-2-(4-chlorophenyl)quinazolin-4(3H)-one]
≤ 10	O=c1c2ccccc2nc(-c2ccc(Cl)cc2)n1NCc1ccc(Cl)cc1 [Example 51, 3-(4-chlorobenzylamino)-2-(4-chlorophenyl)quinazolin-4(3H)-one]
≤ 10	O=c1c2ccccc2nc(-c2ccc(Cl)cc2)n1NCc1ccc(C(F)(F)F)cc1 [Example 52, 2-(4-chlorophenyl)-3-(4-(trifluoromethyl)benzylamino)quinazolin-4(3H)-one]
≤ 10	Cc1cc(-c2nc3ccccc3c(=O)n2NCc2ccc(Br)cc2)ccc1F [Example 54, 3-(4-bromobenzylamino)-2-(4-fluoro-3-methylphenyl)quinazolin-4(3H)-one]
≤ 10	COc1cccc(-c2nc3ccccc3c(=O)n2NCc2ccc(Br)cc2)c1 [Example 55, 3-(4-bromobenzylamino)-2-(3-methoxyphenyl)quinazolin-4(3H)-one]
